Measured values: patent US5721211A, “Compositions and methods for treating small cell and nonsmall cell lung cancers” (The George Washington University, priority 1993, dated 1998)
Ends that are not written are not given here.

Assays:
[1] = test system: NCI-H510 lung cancer cells; assay: NCI-H510 growth in vivo; parameters: species or system nude mice; settings: 10 μg s.c. daily, week 4, mean of 3 tumors
Procedure: In a procedure substantially as set forth in Moody et al. (1993) supra, NCI-H510 lung cancer cells were injected into nude mice, and tumors formed after one week. The compounds listed in Table V below (produced as described above) were injected (100 microliters) subcutaneously daily. Tumors were measured at week 4.

[2] = test system: NCI-H1299 lung cancer cells; assay: 3H-arachidonic acid (AA) release; type: cell-based; settings: 1 μM; 4 determinations
Procedure: In a procedure substantially as set forth in Moody et al. (1993) supra, NCI-H1299 lung cancer cells were loaded with ^3 H-AA overnight, and after removal of free ^3 H-AA cells, were treated with increasing concentrations of THNα1(1-16)amide (Δ), THNα1 (.largecircle.) and THNα1amide (.box-solid.) (produced as described above). The mean value ± S.E. of 4 determinations is indicated; *,p<0.05; ** p<0.01.

lung cancer cells = assay: in vitro colonization of lung cancer cells (general statement); type: cell-based
Procedure: Candidate anti-lung cancer peptides and antibodies may be screened in vitro in a soft agar colonization assay such as that described by Mahmoud, S., et al., Life Sci., 44:367 (1989) which is herein incorporated by reference. In general, single viable lung cancer cells are plated in soft agar. After an appropriate growth period, such as 14 days, cell colonies may be stained with an appropriate cytochemical stain, and the stained cells viewed microscopically. Cytochemical stains are well known to those skilled in the art of histology.

[3] = test system: NCI-H720 (lung carcinoid cancer cells); assay: soft agar colonization, NCI-H720; type: cell-based; settings: 1 μM; for NCI-H720 (carcinoid) colonies: colonies greater than 50 μm, mean ± S.E. of 3
Procedure: (§1) The effects of THNα1 on the growth of lung cancer cell lines was studied. Single viable cells were plated in soft agar as previously described (Mahmoud, S., et al., Life Sci., 44:367 (1989)), and, after two weeks, the colonies were stained with 0.1% p-iodonitrotetrazolium violet.
(§2) The experimental conditions of Example 3 were repeated with NCI-H720 (lung carcinoid cancer cells) and NCI-N417 (SCLC lung cancer cells) cell lines. Colonies were counted as before.

[4] = test system: NCI-N417 (SCLC lung cancer cells); assay: soft agar colonization, NCI-N417; type: cell-based; settings: 1 μM; for (SCLC) N417 colonies: colonies greater than 50 μm, mean ± S.E. of 3
Procedure: as §1, §2

[5] = test system: lung cancer cells or plasma membranes derived therefrom; assay: direct binding of labeled thymosin to lung cancer cells or plasma membranes; settings: 125I-Tyr labeled ligand
From the text: Direct, i.e., noncompetitive, binding of a labeled ligand to intact cells or plasma membranes may be determined. […] These and other experiments not detailed here indicate that the thymosins may not have specific receptors. Palaszynski, E., Biochemical Studies on Thymosin α1, Ph.D. Thesis, George Washington University, Washington, D.C., 1981. It is thus all the more suprising and unexpected that certain thymosins have such profound inhibitory effects on the binding of VIP to its specific receptors and on the growth promoting effects of VIP in lung cancer cells.

[6] = test system: tumors of both SCLC and NSCLC types of lung cancer cells; parameters: species or system nude mice; settings: mouse, in vivo

Ac-SDAAVDTSSEITTKDL-NH2 [THNα1-N16 (1-16) amide, Ac-Ser-Asp-Ala-Ala-Val-Asp-Thr-Ser-Ser-Glu-Ile-Thr-Thr-Lys-Asp- Leu-NH2]
Tumor volume [1]: 410 mm^3
Tumor volume ([1]; listed as THNα1-N16 (1-16)amide): strongly inhibit
3H-AA release [2]: significantly stimulate

thymosin β4 (SDKPDMAEIEKFDKSKLKKTETQEKNPLPSKETIEQEKQAGES; Thymosin beta-4; UniProt P62328 2-44, looked up) [THN β4, a 43-amino acid peptide, MW 4982]
colony formation of lung cancer cells in vitro (lung cancer cells): little effect
N/No, NCI-H720 [3]: 0.93
NCI-H720 (carcinoid) colonies [3]: 68 ± 20
NCI-H720 (carcinoid) colonies ([3]; listed as THNβ4): did not influence colony number significantly
N/No, N417 [4]: 1.20
(SCLC) N417 colonies [4]: 240 ± 68
(SCLC) N417 colonies ([4]; listed as THNβ4): did not influence colony number significantly

(^125 I-Tyr)-labeled THNα1: 125I-Tyr labeled THNα1 used for direct binding analyses (SDAAVDTSSEITTKDLKEKKEVVEEAEN; ends and bridges not checked; also: 125I-Tyr label, place not given here; UniProt P06454 2-29, looked up)
direct (noncompetitive) binding affinity [5]: bind with poor affinity

Ac-SDAAVDTSSEITTKDLKEKKEVVEEAEN [THNα1, thymosin α1]
toxic side effects [6]: No toxic side effects were observed
